How the values were obtained:
NF-κB p65 = NF-κB p65 nuclear translocation in CD19^+ B cells of PBMCs (confocal microscopy); assay type: cell-based, human; conditions: primary B cells, dTASL1 10 µM 24 h, R848 (5 μg/ml) 3 h, n=7
Description: (§1) PBMCs were treated for 24 h with DMSO or dTASL1 (10 µM) and thereafter stimulated with 5 μg/ml R848 (Invivogen) for three hours or left unstimulated. Cells were harvested and stained for 30 minutes with PE-conjugated anti-CD19 antibodies (BioLegend, #302254, 1:200 in PBS/2% FBS) on ice and fixed with 4% formaldehyde in PBS for 15 minutes at RT. Permeabilization and staining for NF-κB p65 and IRF5 and counterstaining was performed as for CAL-1 and cells were seeded at a concentration of 3×10^4 cells/well onto 384-well imaging plates. Images were acquired on a PerkinElmer Opera Phenix HCS spinning disc confocal microscope and analyzed as described above with the additional identification of B cells based on CD19 membrane staining intensity. This protocol also applies to the cells obtained from SLE patients.
(§2) Given that all evidence obtained seems to confirm the mechanistic precision of this chemical agent, any further consideration of assessing the therapeutic potential required evidence for activity in human primary cells relevant for SLE pathophysiology. The effect of dTASL1 in human peripheral blood mononuclear cells (PBMCs) was assessed. […] It has been previously shown that the SLC15A4-TASL module was required for TNF production in primary human monocytes. […] The impact of dTASL1 on TLR7/8 responses by directly monitoring IRF5 by confocal microscopy in B cells was assessed.

SLC15A4 = target: T1, SLC15A4 (Homo sapiens, UniProt Q8N697); experiment: Competition assay with V5-tagged N-terminal TASL fragments (V5 immunofluorescence); assay type: cell-based; conditions: TASL-V5 fragments of first 94 and 193 amino acids; 10 mM dTASL1, 24 h
T1 construct: transient TASL-V5 N-terminal fragments 1-94 and 1-193 (C-terminal V5) as partner
Description: For staining of fixed cells, 12 k cells/well were seeded in tissue culture-treated PhenoPlate 96-well plates (PerkinElmer) and incubated over-night. Cells were transfected with TASL-V5 fragments the next day and subsequently TASL-V5 expression was induced by addition of 1 μg/ml doxycycline and […] dTASL1 or an equivalent volume of DMSO respectively. Compound and doxycycline were added at the same time, to allow dTASL1 to occupy SLC15A4 binding sites in advance of TASL binding. Cells were fixed after 24 h of incubation for 10 min with 4% formaldehyde in PBS and permeabilized and blocked with 0.2% Triton X-100 (Sigma) and 5% FBS in PBS for 1 h. Cells were stained overnight at 4 °C with a mouse anti V5 primary antibody (Invitrogen) in blocking solution. Cells were washed 3 time in PBS and stained for 1.5 h with fluorescently labelled goat anti mouse Alexa-568 (Invitrogen) secondary antibody. […]
(§3) Encouraged by the fact that the chemical entity of the present invention was showing the desired behavior and specificity profile, it became important to better clarify the molecular basis of this uncommon mechanism of action, i.e interference with a highly specific protein interaction leading to degradation of a single complex component. The effect of dTASL1 on complex assembly was first monitored. […]

IRF5 = IRF5 nuclear translocation in CD19^+ B cells of PBMCs (confocal microscopy); assay type: cell-based, human; conditions: primary B cells, dTASL1 10 µM 24 h, R848 (5 μg/ml) 3 h, n=7
Description: as §1, §2

CAL-1 pDCs = experiment: ELISA of R848-induced responses in CAL-1 pDCs; assay type: cell-based, human
Description: CAL-1, THP1 or human primary cells were incubated with dTASL1 and other identified compounds (or the corresponding volume of DMSO vehicle) for 24 h or 48 h at the indicated concentration and subsequently stimulated with R848 (5 μg/ml) for the indicated time. Supernatant or cells were recovered for ELISA, SDS-PAGE or microscopy-based analysis.
All enzyme-linked immunosorbent assay (ELISA) experiments were performed using diluted cell supernatant according to manufacturer's instructions. ELISA kits for human IL-6 (no. 88-7066-88), human CCL2 (no. 88-7399-88) and human TNF (no. 88-7346-77) were from Invitrogen. ELISA kit for human interferon beta […] was from PBL Assay Science (41410-1).
Based on potency and kinetics, the compound C5 was selected for further characterization (FIG. 2E). C5 is an elongated molecule comprised of an aromatic 2-(4-ethoxyphenyl)-quinoline moiety followed by an amide bond and an aliphatic 2-methyl-1-propylpiperidine (FIG. 2F). To validate the scaffold and explore the chemical space at the aliphatic end of the compound, five analogues and an independently synthesized batch of C5 were obtained. […] Therefore the C5 compound was selected, which was named dTASL1 as its activity leads to TASL degradation, to assess effects on TLR7/8-induced signaling and responses.

TASL-SLC15A4 complex = TASL-SLC15A4 complex (Homo sapiens, UniProt Q8N697); experiment: PM-associated TASL levels in cells coexpressing ΔN-SLC15A4 and TASL-GFP; assay type: cell-based; conditions: 10 µM, 24 h
Description: For live cell imaging cells were plated in PhenoPlate 96-well plates or Ibidi m-Slide 8 (Ibidi) wells at 16 k/well and incubated over-night. Then compounds were added, if indicated, and cells were imaged after 24 h of incubation. Cells were stained with LysoTracker Deep Red L12492 (ThermoFisher) and Hoechst 34580 (ThermoFisher). PhenoPlate images were acquired on an Opera Phenix Plus High-Content Screening System (PerkinElmer) and m-Slide images were acquired on a confocal laser scanning microscope (Zeiss LSM980, Carl Zeiss) equipped with an incubation chamber. Images were analyzed with Fiji-ImageJ.
Encouraged by the fact that the chemical entity of the present invention was showing the desired behavior and specificity profile, it became important to better clarify the molecular basis of this uncommon mechanism of action, i.e interference with a highly specific protein interaction leading to degradation of a single complex component. The effect of dTASL1 on complex assembly was first monitored. […] While total levels of SLC15A4-GFP were unaltered, localization appears to reflect some lysosomal rearrangement. […] To further rule out the residual possibility of an indirect effect, possibly related to TASL maturation or transport, dTASL1 competition assays with GFP-SLC15A4 associated with short N-terminal portions of TASL protein were performed. […]

ΔN-SLC15A4-GFP = ΔN-SLC15A4-GFP (Homo sapiens, UniProt Q8N697); experiment: ΔN-SLC15A4-GFP levels and localization in HEK293T cells; assay type: cell-based; conditions: 10 µM, 24 h
Description: Cells transfected with TASL-V5 plasmid were stained for V5-tag and detected with deep red Alexa Fluor 647 secondary antibody to allow for selection in the presence of an mCherry reporter. Cells were measured either immediately after staining or in the case of live cells immediately after harvesting and washing with PBS. Data were acquired on a BD FACSCalibur (BD Biosciences) and analyzed with FlowJo software (version 10).
For live cell imaging cells were plated in PhenoPlate 96-well plates or Ibidi m-Slide 8 (Ibidi) wells at 16 k/well and incubated over-night. Then compounds were added, if indicated, and cells were imaged after 24 h of incubation. Cells were stained with LysoTracker Deep Red L12492 (ThermoFisher) and Hoechst 34580 (ThermoFisher). […] Images were analyzed with Fiji-ImageJ.
as §3

Chain of ΔN-SLC15A4-GFP (Q8N697 whole entry, stated change not applied): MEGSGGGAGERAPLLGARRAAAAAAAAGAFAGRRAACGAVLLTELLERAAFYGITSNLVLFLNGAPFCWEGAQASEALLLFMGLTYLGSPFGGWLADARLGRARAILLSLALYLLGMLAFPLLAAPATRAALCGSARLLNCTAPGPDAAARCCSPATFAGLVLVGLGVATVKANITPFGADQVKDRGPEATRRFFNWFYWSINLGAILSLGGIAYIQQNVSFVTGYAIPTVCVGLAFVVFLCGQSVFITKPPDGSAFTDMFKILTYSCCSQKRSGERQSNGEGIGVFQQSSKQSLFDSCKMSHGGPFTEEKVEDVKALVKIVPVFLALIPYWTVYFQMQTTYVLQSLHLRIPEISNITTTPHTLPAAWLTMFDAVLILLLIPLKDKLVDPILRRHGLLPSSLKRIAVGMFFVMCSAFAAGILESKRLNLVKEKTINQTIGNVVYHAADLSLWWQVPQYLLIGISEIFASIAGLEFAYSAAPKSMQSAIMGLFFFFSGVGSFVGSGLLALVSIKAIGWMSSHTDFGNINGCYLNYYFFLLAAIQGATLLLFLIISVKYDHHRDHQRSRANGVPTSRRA
Chain of TASL-SLC15A4 complex (Q8N697 whole entry, one chain of several): as the sequence (Q8N697 whole entry, stated change not applied) above
T1 sequence (Q8N697 whole entry, the tested form may be a part): as the sequence (Q8N697 whole entry, stated change not applied) above

## CCOc1ccc(-c2cc(C(=O)NCCCN3CCCCC3C)c3ccccc3n2)cc1 (stereo not shown) [dTASL1, 2-(4-ethoxyphenyl)-N-(3-(2-methylpiperidin-1-yl)propyl) quinoline-4-carboxamide]
NF-κB p65
  activation of NF-κB p65: without affecting the activation of NF-κB p65
SLC15A4
  SLC15A4-localized V5 signal: reduce SLC15A4-localized V5 signal for both short TASL portions
IRF5
  IRF5 nuclear translocation: significantly reduced IRF5 nuclear translocation
CAL-1 pDCs; CAL-1 pDCs, 24 h pre-treatment, R848 (5 μg/ml) 16-24 h
  R848-induced responses: strongly suppressed R848-induced responses
CAL-1 pDCs; human monocytic and pDC cell lines
  downstream type I IFN production: specifically impairs TLR7/8-induced IRF5 activation and downstream type I IFN production
TASL-SLC15A4 complex
  PM-associated TASL levels: severely reduced PM-associated TASL levels
ΔN-SLC15A4-GFP
  levels or localization of ΔN-SLC15A4-GFP: did not affect levels or localization of ΔN-SLC15A4-GFP

— patent publication US20260364088A1, “TASL MIMICKING MOLECULES AND APPLICATIONS THEREOF” (CEMM - FORSCHUNGSZENTRUM FÜR MOLEKULARE MEDIZIN GMBH, priority 2022, published 2026)
